Assay results as given in ChEMBL document CHEMBL1201862, “PubChem BioAssay data set” (2004).
Calls of active or inactive are those of the source.

What was measured:
[1] = mitochondrial function rescue without frataxin homolog – Friedreich's ataxia, plus single-dose screen, dose response (AID 1465); type: functional;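 further: yeast depleted of Yfh1p frataxin homolog grown on glycerol needing respiration; WST-1 tetrazolium dye reduction as measure of cellular dehydrogenase metabolic activity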
[2] = viability loss in HeLa cells – cytotoxicity control for MgcRacGAP inhibitor project, dose response (AID 624300); type: functional
Nonstructural protein 1 = Nonstructural protein 1 (Influenza A virus, UniProt Q194T2); type: functional, Influenza A virus (A/California/07/2009(H1N1))
Chain of Nonstructural protein 1 (Q194T2 whole entry): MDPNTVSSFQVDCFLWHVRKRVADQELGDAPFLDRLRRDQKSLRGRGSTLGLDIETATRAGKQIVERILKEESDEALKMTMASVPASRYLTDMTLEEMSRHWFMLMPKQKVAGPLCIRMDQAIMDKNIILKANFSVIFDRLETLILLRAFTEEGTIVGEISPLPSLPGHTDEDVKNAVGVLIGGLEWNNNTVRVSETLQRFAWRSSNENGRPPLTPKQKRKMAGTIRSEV

[3] = viability loss in THP-1 monocytes – THP-1 cells, cytotoxicity control for Vif-APOBEC3G degradation inhibitor project, dose response (AID 1117359); type: functional; details: THP-1
[4] = target: T1, Rac GTPase-activating protein 1 (Homo sapiens, UniProt Q9H0H5); assay: blockers of MgcRacGAP-driven Rac1 GTP hydrolysis – biochemical, ADP Hunter fluorescence, primary and confirmatory, confirmation (AID 624330); type: functional
T1 sequence (Q9H0H5 whole entry): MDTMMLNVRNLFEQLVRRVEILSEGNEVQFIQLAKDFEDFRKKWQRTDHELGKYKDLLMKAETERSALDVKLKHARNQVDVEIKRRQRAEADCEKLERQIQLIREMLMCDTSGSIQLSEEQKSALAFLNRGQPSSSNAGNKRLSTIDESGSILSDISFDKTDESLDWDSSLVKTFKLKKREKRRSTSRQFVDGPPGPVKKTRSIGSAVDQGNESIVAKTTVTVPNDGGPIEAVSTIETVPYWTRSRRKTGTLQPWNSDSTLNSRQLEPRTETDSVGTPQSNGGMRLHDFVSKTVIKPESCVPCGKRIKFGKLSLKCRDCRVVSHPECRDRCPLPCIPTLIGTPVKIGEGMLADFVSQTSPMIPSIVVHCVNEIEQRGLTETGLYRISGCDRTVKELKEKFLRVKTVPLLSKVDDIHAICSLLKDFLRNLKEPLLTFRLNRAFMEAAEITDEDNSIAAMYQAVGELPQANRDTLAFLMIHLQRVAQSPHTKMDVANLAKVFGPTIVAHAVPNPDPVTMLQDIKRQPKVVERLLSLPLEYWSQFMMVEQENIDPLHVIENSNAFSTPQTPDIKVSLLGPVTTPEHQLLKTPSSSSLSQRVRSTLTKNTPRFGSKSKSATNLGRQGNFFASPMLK

[5] = viability of HCT116 lacking mutant beta-catenin – cell-based, human colon tumor, dose response (AID 1045); type: functional;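 further: HCT116 colon tumor cells with beta catenin knocked out; cells exposed to compound for 60 hours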
[6] = viability of PTEN-deleted HCT116 cells – cell-based, HCT116 PTEN knockout, dose response (AID 1047); type: functional;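 further: HCT116 colon tumor cells with PTEN knocked out; cells exposed to compound for 60 hours before readout; potency for loss of cell viability measured by luminescence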
[7] = target: Glutathione-S-transferase (Schistosoma japonicum, UniProt Q26513); assay: GST-antibody interaction or FRET quenching – biochemical, TR-FRET, artefact control for Vif-APOBEC3G degradation inhibitor project, dose response (AID 1117362); type: functional
Chain of Glutathione-S-transferase (Q26513 whole entry): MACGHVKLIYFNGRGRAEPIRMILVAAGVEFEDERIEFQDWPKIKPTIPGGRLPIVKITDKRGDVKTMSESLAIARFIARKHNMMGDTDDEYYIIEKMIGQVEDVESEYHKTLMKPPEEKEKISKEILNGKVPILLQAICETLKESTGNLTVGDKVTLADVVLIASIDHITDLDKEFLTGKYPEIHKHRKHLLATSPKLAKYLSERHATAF

[8] = P. falciparum Dd2 growth inhibitors, dose response, SYBR Green, cherry-picked samples (AID 1159567); type: functional, cell-based
[9] = growth inhibition of yeast DHODH-expressing 3D7 parasites – SYBR Green, dry powder samples, dose response (AID 1159570); type: functional, cell-based;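 further: parasite growth measured after 72 hours of compound exposure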
[10] = Dd2 malaria parasite growth inhibition potency – SYBR Green, dry powder samples, dose response (AID 1159566); type: functional, cell-based;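 further: potency for growth inhibition with lower SYBR green DNA signal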
[11] = Plasmodium falciparum Dd2 Sybr green parasite growth Measured in Cell-Based and Microorganism Combination System Using Plate Reader - 2153-01_Inhibitor_Dose_DryPowder_Activity_Set3.; type: functional
[12] = toxicity to human HepG2 hepatoma cells – cell-based, plate reader, dry powder samples, cytotoxicity control, dose response (AID 1159569); type: functional;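 further: inhibitor potency with signal falling toward the positive control level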
[13] = toxicity to human hepatoma HepG2 cells – cell-based, cherry-picked samples, cytotoxicity control, dose response (AID 1159577); type: functional
[14] = growth inhibition of PfATP4-mutant resistant parasites – NITD609-resistant line, SYBR Green, dry powder, dose response (AID 1159571); type: functional, cell-based;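 further: parasites synchronized at ring stage by sorbitol before testing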
[15] = target: RNA-editing ligase 1, mitochondrial (Trypanosoma brucei brucei, UniProt P86926); assay: inhibition of trypanosome RNA editing ligase – biochemical, fluorescence, Trypanosoma brucei, dose response (AID 1117295); type: functional
Chain of RNA-editing ligase 1, mitochondrial (P86926 whole entry): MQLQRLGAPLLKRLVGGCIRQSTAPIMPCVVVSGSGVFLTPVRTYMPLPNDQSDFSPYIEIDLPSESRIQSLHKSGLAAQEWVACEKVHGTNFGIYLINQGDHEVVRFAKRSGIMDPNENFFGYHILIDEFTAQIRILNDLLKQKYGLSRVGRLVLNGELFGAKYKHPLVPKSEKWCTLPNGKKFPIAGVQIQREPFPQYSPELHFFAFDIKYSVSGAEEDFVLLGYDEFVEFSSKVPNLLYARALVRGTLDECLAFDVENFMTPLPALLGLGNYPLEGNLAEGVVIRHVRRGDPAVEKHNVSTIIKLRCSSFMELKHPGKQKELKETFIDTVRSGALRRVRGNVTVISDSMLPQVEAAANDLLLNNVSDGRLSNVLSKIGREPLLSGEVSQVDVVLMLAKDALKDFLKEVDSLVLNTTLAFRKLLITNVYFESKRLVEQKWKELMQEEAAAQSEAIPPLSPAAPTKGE

CN(C)c1ccc(/N=C/C=C2/N(C)c3ccccc3C2(C)C)cc1
active: EC50 [1] > 100 µM | CC50 [2] 100 µM | IC50 (Nonstructural protein 1) 16.1 µM | CC50 [3] 17.5 µM | IC50 [4] 20.6 µM | EC50 [5] 39 µM | EC50 [6] 39 µM | IC50 [7] 44.9 µM

N#C[C@@H]1[C@H](c2ccc(C3=CCCCC3)cc2)[C@@H](CO)N1C(=O)NC1CCCC1
active: AC50 [8] 0.42 µM | AC50 [9] 9.32 µM | AC50 [10] 0.409 µM | AC50 [11] 0.399 µM | AC50 [12] 62.5 µM | AC50 [14] 0.549 µM
inactive: AC50 [13] > 39 µM

COC(=O)C1=C(C)N(Cc2ccccc2C(F)(F)F)C(NCc2ccc(C(F)(F)F)cc2)=NC1c1ccccc1 (stereo unspecified)
inactive: IC50 [15] > 96.6 µM
